How the values were obtained:
[1] = biological target: RBM39 and DCAF15 (Homo sapiens, UniProt Q14498+Q66K64); details: stated as known; cited from earlier work
[2] = biological target: T1, IKZF2-CRBN (Homo sapiens, UniProt Q96SW2+Q9UKS7); details: stated as known; cited from earlier work
[3] = biological target: T1, IKZF2-CRBN; experiment: glue screening assay (tripartite split-GFP fluorescence), GFP11-tagged IKZF2 and GFP10-tagged CRBN; assay type: binding; details: protein mix GFP1-9, GFP11-IKZF2, IKZF2-GFP11, GFP10-CRBN, time-course, FIG. 5
Procedure: In another version of the assay, the glue screening assay mixture is assembled in a volume of 2 μL assay buffer (50 mM HEPES buffer, pH 7.5, 150 mM KCl, 4 mM DTT, 0.1 mg/mL BSA, 0.25 mM octyl-beta-glucopyranoside, 5% glycerol with 0.3 μg GFP1-9, 0.05 μg of GFP11-tagged IKZF2, and 0.3 μg GFP10-tagged CRBN. Various variations of the buffer provide consistent signal in this assay (0.1-1 mg/mL BSA, 0-10% glycerol, 0-1 mM octyl-beta-glucopyranoside). Similar to the previous version, two different versions of GFP11-tagged IKZF2 are tested with GFP11 fused to N- and C-termini of IKZF2 (GFP11-IKZF2 and IKZF2-GFP11, respectively). Likewise, two different versions of GFP10-tagged CRBN are tested: GFP10 fused to the N-terminus of CRBN (GFP10-CRBN) and GFP10 fused to the C-terminus of CRBN (CRBN-GFP10). Concentrations correspond to 5 μM of GFP (1-9), 1.25 μM of each of the IKZF2 constructs and 0.5 μM of each of the two CRBN constructs. Concentrations of the IKZF2 and CRBN proteins were optimized for best signal to background by titrating the proteins against each other.
For primary screens, these five different proteins (GFP1-9, GFP11-IKZF2, IKZF2-GFP11, GFP10-CRBN, and CRBN-GFP10) are combined in the assay buffer and added to the plates containing different compound pools. […]

T1 sequence (Q9UKS7 whole entry): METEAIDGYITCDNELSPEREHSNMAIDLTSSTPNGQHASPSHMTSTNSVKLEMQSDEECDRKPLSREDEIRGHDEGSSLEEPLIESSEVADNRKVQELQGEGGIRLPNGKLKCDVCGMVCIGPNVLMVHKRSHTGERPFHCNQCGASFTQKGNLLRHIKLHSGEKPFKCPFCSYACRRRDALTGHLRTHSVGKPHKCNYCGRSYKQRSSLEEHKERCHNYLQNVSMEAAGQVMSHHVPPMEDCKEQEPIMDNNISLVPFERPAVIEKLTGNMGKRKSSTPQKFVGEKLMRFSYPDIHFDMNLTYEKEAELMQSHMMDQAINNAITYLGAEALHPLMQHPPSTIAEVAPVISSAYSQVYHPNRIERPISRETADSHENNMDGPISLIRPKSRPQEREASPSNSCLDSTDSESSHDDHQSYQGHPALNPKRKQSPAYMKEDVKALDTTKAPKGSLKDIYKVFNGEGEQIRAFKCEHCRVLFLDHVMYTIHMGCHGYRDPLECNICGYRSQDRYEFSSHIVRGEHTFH
T1 sequence (Q96SW2 whole entry): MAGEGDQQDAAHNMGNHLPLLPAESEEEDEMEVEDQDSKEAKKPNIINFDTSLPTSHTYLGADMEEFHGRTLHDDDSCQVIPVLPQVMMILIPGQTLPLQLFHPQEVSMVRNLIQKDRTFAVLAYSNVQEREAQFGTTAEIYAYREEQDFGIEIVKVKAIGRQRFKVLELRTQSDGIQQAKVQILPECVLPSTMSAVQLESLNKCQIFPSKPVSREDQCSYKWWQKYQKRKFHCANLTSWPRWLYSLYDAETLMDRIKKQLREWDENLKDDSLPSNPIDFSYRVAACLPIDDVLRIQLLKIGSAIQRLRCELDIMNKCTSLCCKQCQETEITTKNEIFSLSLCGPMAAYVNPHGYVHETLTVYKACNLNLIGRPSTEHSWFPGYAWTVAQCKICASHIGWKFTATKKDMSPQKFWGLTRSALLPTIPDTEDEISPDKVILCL
RBM39 and DCAF15, sequence (Q14498 whole entry, species assumed): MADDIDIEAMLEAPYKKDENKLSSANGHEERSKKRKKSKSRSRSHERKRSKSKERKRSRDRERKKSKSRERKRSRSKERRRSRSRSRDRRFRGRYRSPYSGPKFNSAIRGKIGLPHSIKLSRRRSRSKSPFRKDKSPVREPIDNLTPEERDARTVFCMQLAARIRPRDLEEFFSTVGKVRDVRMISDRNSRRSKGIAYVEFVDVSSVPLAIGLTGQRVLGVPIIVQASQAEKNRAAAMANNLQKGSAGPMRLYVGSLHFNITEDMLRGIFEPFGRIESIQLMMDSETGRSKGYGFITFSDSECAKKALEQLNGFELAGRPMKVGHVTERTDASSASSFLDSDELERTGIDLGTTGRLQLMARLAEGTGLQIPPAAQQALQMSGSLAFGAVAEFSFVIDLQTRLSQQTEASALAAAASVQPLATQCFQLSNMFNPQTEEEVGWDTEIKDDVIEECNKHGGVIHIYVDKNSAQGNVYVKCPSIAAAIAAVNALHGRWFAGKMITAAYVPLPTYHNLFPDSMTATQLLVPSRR
RBM39 and DCAF15, sequence (Q66K64 whole entry, species assumed): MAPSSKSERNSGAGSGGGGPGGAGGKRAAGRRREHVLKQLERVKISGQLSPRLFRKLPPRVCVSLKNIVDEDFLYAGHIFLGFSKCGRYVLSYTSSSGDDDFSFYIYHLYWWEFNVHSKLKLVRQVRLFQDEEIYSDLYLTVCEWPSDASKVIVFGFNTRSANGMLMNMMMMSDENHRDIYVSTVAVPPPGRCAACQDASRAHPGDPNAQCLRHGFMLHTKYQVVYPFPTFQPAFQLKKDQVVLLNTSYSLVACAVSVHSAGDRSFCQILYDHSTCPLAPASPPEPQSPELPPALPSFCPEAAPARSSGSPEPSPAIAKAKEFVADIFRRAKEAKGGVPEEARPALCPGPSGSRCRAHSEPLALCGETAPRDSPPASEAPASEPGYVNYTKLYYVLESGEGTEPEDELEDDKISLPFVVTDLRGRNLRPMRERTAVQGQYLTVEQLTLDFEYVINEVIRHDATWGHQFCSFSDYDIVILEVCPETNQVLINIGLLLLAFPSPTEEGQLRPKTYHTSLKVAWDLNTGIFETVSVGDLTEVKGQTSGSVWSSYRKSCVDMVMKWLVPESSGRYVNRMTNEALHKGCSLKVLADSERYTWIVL

Compound | glue activity for protein pair RBM39 and DCAF15 (known) [1] | glue activity for IKZF2-CRBN protein pair (known) [2] | GFP signal over time compared to the DMSO control [3]
Nc1ccc(S(=O)(=O)Nc2cnc3c(Cl)cccc3n2)cc1 | known glues | devoid of glue activity | indistinguishable from the DMSO control
NS(=O)(=O)c1ccc(S(=O)(=O)Nc2cccc3c(Cl)c[nH]c23)cc1 [Indisulam] | known glues | devoid of glue activity | indistinguishable from the DMSO control
